The values below come from US20060167110A1 (priority 1995, published 2006).

Where “and” joins values, the source holds several entries; their conditions need not be identical. Identical values can stand only once.

The target in one assay is T1, dopamine uptake system (Rattus norvegicus, UniProt P23977).
T1 construct: An in vitro nerve-terminal preparation (symptosome-preparation) was obtained from fresh rat neostriatal brain tissue; from tissue; host or cells: rat neostriatal synaptosomes
The assay can be described thus: Inhibition of tritiated dopamine uptake in rat neostriatal nerve-terminal (synaptosome) preparation. In kind it is biochemical. As to the method:
An in vitro nerve terminal preparation (synaptosome preparation) was prepared using fresh rat neostriatal tissue.
Transport by dopamine nerve-terminals was estimated by measuring the uptake of tritiated dopamine.

Assay [1] concerns the target T2, MAO-B (Cavia porcellus, UniProt P58028).
T2 construct: MAO-B (^14C-phenylethylamine) by human platelets and guinea pig hippocampal homogenates; from tissue; host or cells: guinea pig hippocampal homogenates
T2 sequence (P58028 1-520): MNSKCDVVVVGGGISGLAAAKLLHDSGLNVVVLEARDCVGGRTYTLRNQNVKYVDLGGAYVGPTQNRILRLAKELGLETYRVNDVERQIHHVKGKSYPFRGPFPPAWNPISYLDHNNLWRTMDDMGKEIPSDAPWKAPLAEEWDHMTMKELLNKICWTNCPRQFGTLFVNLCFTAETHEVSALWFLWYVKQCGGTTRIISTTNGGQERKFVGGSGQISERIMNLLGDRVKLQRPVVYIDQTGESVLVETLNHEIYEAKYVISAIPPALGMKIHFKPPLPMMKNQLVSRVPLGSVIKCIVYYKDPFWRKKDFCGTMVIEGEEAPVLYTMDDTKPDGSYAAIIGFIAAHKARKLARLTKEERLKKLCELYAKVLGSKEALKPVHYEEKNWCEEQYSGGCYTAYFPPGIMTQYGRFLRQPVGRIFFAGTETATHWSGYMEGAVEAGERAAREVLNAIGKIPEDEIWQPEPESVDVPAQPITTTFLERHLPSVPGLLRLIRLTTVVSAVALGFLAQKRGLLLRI
The assay can be described thus: MAO-B inhibition in guinea pig hippocampal homogenates in vitro. In kind it is biochemical. To be noted: for IC50: IC50 Values for the Inhibition of MAO-B, Guinea Pig Hippocampal Cortex; for reduction in potency compared to selegiline, MAO-B, Guinea Pig Hippocampal Cortex: figure in parentheses. From the text: (§1) Human platelet MAO is comprised exclusively of the type-B isoform of the enzyme. […] The present study also examined the two enantiomers of DMS for inhibitory activity with respect to the MAO-A and MAO-B in guinea pig hippocampal tissue. Guinea pig brain tissue is an excellent animal model for studying brain dopamine metabolism, the enzyme kinetics of the multiple forms of MAO and the inhibitory properties of novel agents that interact with these enzymes. The multiple forms of MAO in this animal species show similar kinetic properties to those found in human brain tissue. Finally, the test agents were administered to guinea pigs and the extent to which they might act as inhibitors of brain MAO in vivo was assessed.
(§2) In vitro: The test system utilized the in vitro conversion of specific substrates of MAO-A (^14C-serotonin) in guinea pig hippocampal homogenates or MAO-B (^14C-phenylethylamine) by human platelets and guinea pig hippocampal homogenates. […] A percent inhibition was calculated from these values.

Assay [2] concerns the target T2, MAO-B. Briefly: In vivo brain MAO-B inhibition in guinea pig hippocampus after 5 daily s.c. doses. The settings on record: preliminary studies. The procedure: FIG. 20: In vivo MAO-B Inhibition in Guinea Pig Hippocampus. […] Animals were then sacrificed and the MAO-B activity in the hippocampus portion of the brain was determined. […] The plots were used to estimate the ID50 dosage for each agent.
Each enantiomer of DMS was administered in vivo by subcutaneous injection once a day for five consecutive days, and inhibition of brain MAO-B activity was then determined.

Assay [3] concerns cultured rat mesencephalic cells. Briefly: TH immunochemistry after 100 μM NMDA exposure.
Procedure: Rat mesencephalic cell cultures were exposed to 100 μM NMDA and incubated as described above in connection with FIG. 16.
In assay [4] the test system is rat embryonic mesencephalic cells. Briefly: [3H]dopamine uptake, medium change (glutamate receptor dependent) model of cell death.
Procedure: Preparations are then added to 10 ml Ecoscint (National Diagnostics) and counted in a scintillation spectrometer.
(§3) In these experiments, cells were plated and allowed to stabilize for several days.
Assay [5] shares this test system. The assay can be described thus: TH positive cell survival, medium change (glutamate receptor dependent) model of cell death.
Procedure: as §3
The target of assay [6] is T3, MAO-A (Cavia porcellus, UniProt H0UVA2).
T3 sequence (H0UVA2 1-461): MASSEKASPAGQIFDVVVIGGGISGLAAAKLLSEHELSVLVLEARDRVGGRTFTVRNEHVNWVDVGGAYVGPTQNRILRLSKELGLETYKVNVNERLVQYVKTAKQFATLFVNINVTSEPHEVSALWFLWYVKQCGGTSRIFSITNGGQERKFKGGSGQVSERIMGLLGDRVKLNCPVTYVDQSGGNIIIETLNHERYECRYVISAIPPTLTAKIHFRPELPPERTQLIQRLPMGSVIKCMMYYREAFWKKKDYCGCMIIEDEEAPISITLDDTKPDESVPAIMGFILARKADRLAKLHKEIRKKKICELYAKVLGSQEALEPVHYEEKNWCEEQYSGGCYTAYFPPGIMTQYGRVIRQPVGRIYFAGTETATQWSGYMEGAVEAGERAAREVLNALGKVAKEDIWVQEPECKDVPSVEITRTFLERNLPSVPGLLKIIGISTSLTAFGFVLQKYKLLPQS
Briefly: MAO-A inhibition in guinea pig hippocampal homogenates in vitro. In kind it is biochemical. Further details: specific substrates of MAO-A (^14C-serotonin) in guinea pig hippocampal homogenates; from tissue; host or cells: guinea pig hippocampal homogenates. To be noted: for reduction in potency compared to selegiline, MAO-A: figure in parentheses, times less potent.
Excerpt: as §1, §2

In assay [7] the target is T4, MAO-A (Rattus norvegicus, UniProt P21396).
T4 sequence (P21396 1-526): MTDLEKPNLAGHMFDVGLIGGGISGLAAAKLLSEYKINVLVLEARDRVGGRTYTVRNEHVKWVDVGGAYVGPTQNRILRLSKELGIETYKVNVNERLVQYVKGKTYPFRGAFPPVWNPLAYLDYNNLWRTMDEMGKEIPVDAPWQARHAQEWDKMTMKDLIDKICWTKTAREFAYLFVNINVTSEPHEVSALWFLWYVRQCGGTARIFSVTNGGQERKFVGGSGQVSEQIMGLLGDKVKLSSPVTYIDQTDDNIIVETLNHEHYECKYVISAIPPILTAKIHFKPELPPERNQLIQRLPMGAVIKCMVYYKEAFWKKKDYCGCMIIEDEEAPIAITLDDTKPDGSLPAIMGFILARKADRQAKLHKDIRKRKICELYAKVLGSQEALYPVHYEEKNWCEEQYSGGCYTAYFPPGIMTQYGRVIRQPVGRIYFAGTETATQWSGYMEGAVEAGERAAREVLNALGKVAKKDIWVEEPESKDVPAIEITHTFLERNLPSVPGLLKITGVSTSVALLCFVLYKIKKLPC
The assay can be described thus: MAO-A inhibition in rat brain tissue. In kind it is biochemical. On the set-up: from tissue; host or cells: rat cortex mitochondrial-rich fractions.

The target in assay [8] is T3, MAO-A. Briefly: In vivo MAO-A inhibition in guinea pig cortex (hippocampus) after 5 s.c. treatments. The settings on record: sc, read-out: inhibition of MAO-A activity.
Procedure: Hippocampal homogenates containing enzyme were prepared, and assays in vitro for MAO-A and MAO-B activity.
In a further assay the test system is cerebral infarction. The settings on record: given orally; patients with subarachnoid hemorrhage and cerebral vasospasm; cited from earlier work.

T1 sequence (P23977 whole entry): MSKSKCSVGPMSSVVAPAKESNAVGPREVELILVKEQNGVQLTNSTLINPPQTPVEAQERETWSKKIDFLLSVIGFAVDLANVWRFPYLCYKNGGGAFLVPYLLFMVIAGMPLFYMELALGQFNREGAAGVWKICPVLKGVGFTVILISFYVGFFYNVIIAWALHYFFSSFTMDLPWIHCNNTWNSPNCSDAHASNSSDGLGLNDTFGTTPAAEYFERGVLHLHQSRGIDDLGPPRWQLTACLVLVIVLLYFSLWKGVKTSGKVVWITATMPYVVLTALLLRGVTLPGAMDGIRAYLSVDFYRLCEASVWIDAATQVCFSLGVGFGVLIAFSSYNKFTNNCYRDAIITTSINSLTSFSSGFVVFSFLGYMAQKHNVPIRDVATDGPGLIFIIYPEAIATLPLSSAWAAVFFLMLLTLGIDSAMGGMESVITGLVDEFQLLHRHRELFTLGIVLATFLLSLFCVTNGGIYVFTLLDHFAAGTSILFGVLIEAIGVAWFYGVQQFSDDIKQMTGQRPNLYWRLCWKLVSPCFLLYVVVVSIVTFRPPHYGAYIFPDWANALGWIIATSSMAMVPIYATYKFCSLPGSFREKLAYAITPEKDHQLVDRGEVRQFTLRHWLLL

As a reminder, the IC50 is the point on the concentration scale where inhibition reaches its midpoint. As for `C#CCNC(C)Cc1ccccc1` (single isomer, unassigned) [S(+)DMS, S(+)-desmethylselegiline], the “times more potent than either selegiline or R(−)DMS in inhibiting dopamine uptake” value at dopamine uptake system was 4-5 times. Moreover, the half-inhibitory concentration (IC50) against MAO-B [1] came to 1.2 µM. Also, the “reduction in potency compared to selegiline, MAO-B, Guinea Pig Hippocampal Cortex” value at MAO-B [1] was 1200 nM (1200). Moreover, the inhibition at 0.3 µM on MAO-B [1] (read-out: MAO-B % Inhibition 0 ± SEM, Concentration 300 nM) was found to be 18.7 ± 2.1%. Further, the inhibition at 3 µM at MAO-B [1] (read-out: MAO-B % Inhibition 0 ± SEM, Concentration 3 μM) amounted to 77.1 ± 6%. Moreover, the “times less potent than selegiline, brain MAO-B in vivo” value at MAO-B [2] is recorded as “about 10 times”. In addition, the “TH positive cells, % control” value is 182.3 % control in [3] (0.5 μM, Mean); 135.4 % control and 223.0 % control and 188.5 % control in [3] (0.5 μM, single sample); 197.8 % control in assay [3] (5.0 μM, Mean); 204.4 % control and 199.1 % control and 183.2 % control in assay [3] (5.0 μM, single sample); 276.1 % control in assay [3] (50 μM, Mean); 315.9 % control and 215.0 % control and 337.2 % control and 236.3 % control in assay [3] (50 μM, single sample). Moreover, the “TH positive cells, % control” value in assay [5] (0.5 μM, Mean) was 143.5 % control; in [5] (0.5 μM, single sample), 152.7 % control and 125.2 % control; in assay [5] (5.0 μM, Mean), 130.6 % control; in [5] (5.0 μM, single sample) it was 129.9 % control and 135.6 % control and 123.3 % control and 133.7 % control; in [5] (50 μM, Mean), 109.8 % control; in assay [5] (50 μM, single sample) it was 116.6 % control and 94.8 % control and 118.5 % control and 109.1 % control. Also, the “TH positive cells, cells/cm^2” value in assay [3] (0.5 μM, Mean) was 171.67 cells/cm^2; in assay [3] (0.5 μM, single sample), 127.5 cells/cm^2 and 210 cells/cm^2 and 177.5 cells/cm^2; in assay [3] (5.0 μM, Mean), 186.25 cells/cm^2; in assay [3] (5.0 μM, single sample), 192.5 cells/cm^2 and 187.5 cells/cm^2 and 172.5 cells/cm^2; in assay [3] (50 μM, Mean), 260 cells/cm^2; in [3] (50 μM, single sample) it was 297.5 cells/cm^2 and 202.5 cells/cm^2 and 317.5 cells/cm^2 and 222.5 cells/cm^2. For the same molecule, the “TH positive cells, cells/cm^2” value in assay [5] (0.5 μM, Mean) is 403.1 cells/cm^2; in [5] (0.5 μM, single sample), 402.5 cells/cm^2 and 330.0 cells/cm^2 and 477.5 cells/cm^2; in assay [5] (5.0 μM, Mean), 344.4 cells/cm^2; in [5] (5.0 μM, single sample), 342.5 cells/cm^2 and 357.5 cells/cm^2 and 325.0 cells/cm^2 and 352.5 cells/cm^2; in assay [5] (50 μM, Mean) it was 289.4 cells/cm^2; in assay [5] (50 μM, single sample), 307.5 cells/cm^2 and 250.0 cells/cm^2 and 312.5 cells/cm^2 and 287.5 cells/cm^2. For the same molecule, the “Dopamine uptake, % control” value in assay [4] (0.5 μM, Mean) is 167.2 % control; in assay [4] (0.5 μM, single sample), 170.6 % control and 152.8 % control and 157.4 % control and 188.2 % control; in assay [4] (5.0 μM, Mean), 180.5 % control; in [4] (5.0 μM, single sample), 171.3 % control and 173.7 % control and 181.7 % control and 195.1 % control; in assay [4] (50 μM, Mean), 157.3 % control; in assay [4] (50 μM, single sample), 123.8 % control and 177.7 % control and 146.3 % control and 181.1 % control. Moreover, the “Dopamine uptake, counts/min” value in assay [4] (0.5 μM, Mean) was 35115.5 counts/min; in assay [4] (0.5 μM, single sample), 35830 counts/min and 32074 counts/min and 33042 counts/min and 39516 counts/min; in [4] (5.0 μM, Mean), 37889.75 counts/min; in assay [4] (5.0 μM, single sample) it was 35976 counts/min and 36476 counts/min and 38143 counts/min and 40964 counts/min; in assay [4] (50 μM, Mean), 33016.75 counts/min; in [4] (50 μM, single sample), 26002 counts/min and 37320 counts/min and 30725 counts/min and 38020 counts/min. Moreover, the “MAO-A % Reduction 0 ± SEM” value on MAO-A [6] (Concentration 1 nM) was 92.7 ± 2.5%; on MAO-A [6] (Concentration 10 nM) it was 99.6 ± 0.35%; on MAO-A [6] (Concentration 1 μM), 3.3 + 1.5%; at MAO-A [6] (Concentration 3 μM) it was 4.3 ± 1.0%; on MAO-A [6] (Concentration 10 μM), 10.5 ± 1.47%; at MAO-A [6] (Concentration 100 μM) it was 48.4 ± 1.8%. Moreover, the “reduction in potency compared to selegiline, MAO-A” value at MAO-A [6] is listed as 40.

For the molecule `C#CCNC(C)Cc1ccccc1` (single isomer, unassigned) [R(−)DMS, R(−)-desmethylselegiline], the IC50 at MAO-B [1] turned out to be 0.06 µM; on MAO-A [7], 70 µM; against MAO-A [6] it was 50 µM. Moreover, at MAO-B [1], the “reduction in potency compared to selegiline, MAO-B, Guinea Pig Hippocampal Cortex” value is on record as 60 nM (60). Further, the “times less potent than selegiline, brain MAO-B in vivo” value on MAO-B [2] is listed as “about 10 times”. Besides, the “times less potent than selegiline in inhibiting MAO-A” value at MAO-A [7] (in vitro, rat brain tissue) is listed as “approximately 39 times”. In addition, the inhibition at 3 mg/kg at MAO-A [8] was 29.8%. The “neuron protection by measurement of dopamine uptake (FIG. 15)” value in [4] (5 μM) and in assay [4] (50 μM) was “neuron protection” in each case. For the same molecule, in assay [4] (10 μM, medium change model), the “more axonal growth and terminal axonal survival compared to untreated control cells” value amounted to 40%. In addition, the “MAO-A % Reduction 0 ± SEM” value at MAO-A [6] (Concentration 300 nM) is on record as 4.8 ± 2.1%; on MAO-A [6] (Concentration 1 μM), 4.2 ± 1.5%; on MAO-A [6] (Concentration 3 μM), 10.5 ± 2.0%; on MAO-A [6] (Concentration 10 μM), 19.0 ± 1.3%; on MAO-A [6] (Concentration 100 μM) it was 64.2 ± 1.5%; at MAO-A [6] (Concentration 1 mM), 96.5 + 1.2%. For the same molecule, the “reduction in potency compared to selegiline, MAO-A” value at MAO-A [6] was 20.

Regarding `COCCOC(=O)C1=C(C)NC(C)=C(C(=O)OC(C)C)C1c1cccc([N+](=O)[O-])c1` (stereo not shown) [Nimodipine], in the assay with cerebral infarction, the “incidence of cerebral infarction” value is “lower by one third”.
